Reference: patent US20140249141A1, “1,4-DIAZABICYCLO[3.2.2]NONANES AS NEURONAL NICOTINIC ACETYLCHOLINE RECEPTOR LIGANDS” (Targacept, Inc., priority 2011, published 2014)
“Also recorded” adds a separate entry of the source. Like-named read-outs stand apart in the source and are kept apart here.

Experiments:
[1] = target: T1, human α4β2 (Homo sapiens, UniProt P17787+P43681); experiment: Competition binding to human α4β2 nicotinic receptor in membrane preparations
T1 construct: expressed in transfected cells; membranes prepared from the cells
Protocol: (§1) SH-EP1/human α4β2 (Eaton et al., 2003), SH-EP1/human α4β4 (Gentry et al., 2003), SH-EP1/α6β3β4α5 (Grinevich et al., 2005), TE671/RD and SH-SY5Y cell lines (obtained from Dr. Ron Lukas, Barrow Neurological Institute, St. Joseph's Hospital and Medical Center, Phoenix, Ariz.) were maintained in proliferative growth phase in Dulbecco's modified Eagle's medium (Gibco/BRL) with 10% horse serum (Gibco BRL), 5% fetal bovine serum (HyClone, Logan Utah), 1 mM sodium pyruvate, 4 mM L-glutamine. For maintenance of stable transfectants, the α4β2 and α4β4 cell media was supplemented with 0.25 mg/mL zeocin and 0.13 mg/mL hygromycin B. Selection was maintained for the α6β3β4α5 cells with 0.25 mg/mL of zeocin, 0.13 mg/mL of hygromycin B, 0.4 mg/mL of geneticin, and 0.2 mg/mL of blasticidin. HEK/human α7/RIC3 cells (obtained from J. Lindstrom, U. Pennsylvania, Philadelphia, Pa.) were maintained in proliferative growth phase in Dulbecco's modified Eagle's medium (Gibco/BRL) with 10% fetal bovine serum (HyClone, Logan Utah), 1 mM sodium pyruvate, 4 mM L-glutamine, 0.4 mg/mL geneticin; 0.2 mg/ml hygromycin B.
(§2) Cells were harvested in ice-cold PBS, pH 7.4, then homogenized with a polytron (Brinkmann Instruments, Westbury, N.Y.). Homongenates were centrifuged at 40,000 g for 20 minutes (4° C.). The pellet was resuspended in PBS and protein concentration determined using the Pierce BCA Protein Assay kit (Pierce Biotechnology, Rockford, Ill.).
(§3) Binding to nicotinic receptors was assayed on membranes using standard methods adapted from published procedures (Lippiello and Fernandes, 1986; Davies et al., 1999). In brief, membranes were reconstituted from frozen stocks (approximately 0.2 mg protein) and incubated for 2 h on ice in […] assay buffer (PBS) in the presence of competitor compound (0.001 nM to 100 mM) and radioligand. […] Filters were washed 3 times and the radioactivity retained was determined by liquid scintillation counting.
(§4) Binding data were expressed as percent total control binding. […] Ki was calculated using the Cheng-Prusoff equation (Cheng and Prusoff, 1973).

[2] = target: T2, human α7 (Homo sapiens, UniProt P36544); experiment: Competition binding to human α7 nicotinic receptor in membrane preparations
T2 construct: expressed in transfected cells; host or cells: HEK cells expressing human α7 and RIC3, obtained from J. Lindstrom, U. Pennsylvania; membranes prepared from the cells
Protocol: as §1, §2, §3, §4

[3] = test system: ova-challenged mice; experiment: Ovalbumin-induced lung inflammation (allergic asthma) model, airway hyperresponsiveness; assay type: in vivo; settings: FIGS. 1 and 2, compared to control
Excerpt: Ovalbumin-induced allergic asthma is a widely used model to reproduce the airway eosinophilia, pulmonary inflammation and elevated IgE levels found during asthma. Studies can be run with or without airway hyper-responsiveness (AHR) measurements. Allergic asthma is typically triggered by allergens in the air such as pollen, mold, dust mites, etc., and is commonly characterized by reversible […], elevated levels of IgE causing mast cell activation, chronic airway inflammation, and airway hyper-responsiveness (AHR). The immunological processes involved are characterized by proliferation and activation of Th2 lymphocytes, setting off an allergic cascade.
FIGS. 1 and 2 illustrate Compound A and Control compounds in the ovalbumin-induced lung inflammation model. For detailed procedures, see Hamelmann E, Schwarze J, Takeda K, Oshiba A, Larsen G L, Irvin C G, and Gelfand E W. Noninvasive measurement of airway responsiveness in allergic mice using barometric plethysmography. Am. J. Respir. Crit. Care Med 156: 766-775, 1997, herein incorporated by reference.

[4] = SH-EP1/human α4β2 cell membranes, [3H]-nicotine, Cheng-Prusoff, read-out: Human α4β2 Ki

SMILES | Ki [1] [nM] | Ki [2] [nM] | Ki [1, 4] [nM] | Ki ([2]; HEK/human α7/RIC3 cell membranes, [3H]-epibatidine, Cheng-Prusoff, read-out: Human α7 Ki) [nM] | methacholine (MCh)-induced bronchoconstriction (Penh, index of airway resistance) [3]
O=c1cc(N2CCN3CCC2CC3)nc2c3ccccc3on12 | 1200 | 55 |  |  | 
Cc1cc2nc(N3CCN4CCC3CC4)cc(=O)n2o1 [drawing 5] |  | 42 | 3200 |  | 
O=c1cc(N2CCN3CCC2CC3)nc2cc(-c3ccccc3)on12 |  |  | 1200 | 280 | 
Cc1cc2nc(N3CCN4CCC3CC4)cc(=O)n2o1 [Compound A, 5-(1,4-diazabicyclo[3.2.2]nonan-4-yl)-2-methyl-7H-isoxazolo[2,3-a]pyrimidin-7-one] |  |  |  |  | statistically significant results; also recorded: reduces methacholine (MCh)-induced bronchoconstriction
